Results taken from patent publication US5965537A, “Dolastatin 15 derivatives with carbonyl and heterocyclic functionalities at the C-terminus” (BASF Aktiengesellschaft, priority 1997, dated 1999).

tested on: HT-29 colon carcinoma cells; assay: Cytotoxicity, microculture tetrazolium assay (MTT), HT-29 cell system; format: cell-based; details: 48 hours incubation, T/C of 50% growth inhibition
Procedure: Cytotoxicity was measured using standard methodology for adherent cell lines, such as the microculture tetrazolium assay (MTT). Details of this assay have been published (Alley, M. C., et al., Cancer Research, 48: 589-601,(1988)). Exponentially growing cultures of HT-29 colon carcinoma cells were used to make microtiter plate cultures. Cells were seeded at 5000-20,000 cells per well in 96-well plates (in […] of media), and grown overnight at 37° C. Test compounds were added, in 10-fold dilutions varying from 10^-4 M to 10^-10 M. Cells were then incubated for 48 hours. To determine the number of viable cells in each well, the MTT dye was added ([…] of a 3 mg/ml solution of 3-(4,5-dimethylthiazol-2-yl)-2,5-diphenyltetrazolium bromide in saline). This mixture was incubated at 37° C. for 5 hours, and then […] of 25% SDS, pH 2, was added to each well. After an overnight incubation, the absorbance of each well at 550 nm was read using an ELISA reader. The values for the mean ±SD of data from replicated wells were calculated, using the formula % T/C (% viable cells treated/control). The concentration of test compound which gives a T/C of 50% growth inhibition was designated as the IC50.
Table 9, below, presents the IC50 values determined in the HT-29 cell system: […]

| Compound | IC50 |
| --- | --- |
| CC(C)[C@H](NC(=O)[C@H](C(C)C)N(C)C)C(=O)N(C)[C@H](C(=O)N1CCC[C@H]1C(=O)N1CCC[C@H]1C(=O)c1ccc(F)cc1)C(C)C [Compound I-32, (S)-(Me2Val-Val-MeVal-Pro-pyrrolidin-2-yl)-(4-fluorophenyl) ketone] | > 1000 nM |
| CCCCC(=O)[C@@H]1CCCN1C(=O)[C@@H]1CCCN1C(=O)[C@H](C(C)C)N(C)C(=O)[C@@H](NC(=O)[C@H](C(C)C)N(C)C)C(C)C [Compound I-5, (S)-(Me2 Val-Val-MeVal-Pro-pyrrolidin-2-yl)butylketone] | > 1000 nM |
| COCC(=O)[C@@H]1CCCN1C(=O)[C@@H]1CCCN1C(=O)[C@H](C(C)C)N(C)C(=O)[C@@H](NC(=O)[C@H](C(C)C)N(C)C)C(C)C [Compound I-12, (S)-(Me2 Val-Val-MeVal-Pro-pyrrolidin-2-yl)methoxy-methylketone] | 400 nM |
| COc1ccc(C(=O)[C@@H]2CCCN2C(=O)[C@@H]2CCCN2C(=O)[C@H](C(C)C)N(C)C(=O)[C@@H](NC(=O)[C@H](C(C)C)N(C)C)C(C)C)cc1 [Compound I-22, (S)-(Me2 Val-Val-MeVal-Pro-pyrrolidin-2-yl)-(4-methoxyphenyl) ketone] | > 1000 nM |
| CC(=O)[C@@H]1CCCN1C(=O)[C@@H]1CCCN1C(=O)[C@H](C(C)C)N(C)C(=O)[C@@H](NC(=O)[C@H](C(C)C)N(C)C)C(C)C [Compound I-1, (S)-(Me2 Val-Val-MeVal-Pro-pyrrolidin-2-yl)-methylketone] | > 1000 nM |
| 2-[(S)-(Me2 Val-Val-MeVal-Pro-pyrorolidin-2-yl)]-5-phenyloxazole [III-12] | 900 nM |
| 2-[(S)-(Me2 Val-Val-MeVal-Pro-pyrrolidin-2-yl)]-3,4-dimethyl-thiazole [III-28] | 400 nM |
| (S)-(Me2Val-Val-MeVal-Pro-pyrrolidin-2-yl)-trifluoromethyl-ketone [Compound I-54] | > 1000 nM |

tested on: P388 lymphocytic leukemia (PS system) cell line; assay: not given; details: cited from earlier work

| Compound | inhibition of growth of P388 lymphocytic leukemia cell line |
| --- | --- |
| Dolastatin 15 | markedly inhibits the growth |

tested on: not given; assay: not given; details: synthetic Dolastatin 15; cited from earlier work

| Compound | solubility in aqueous systems |
| --- | --- |
| Dolastatin 15 | poor solubility in aqueous systems |
